Test results taken from US20250025443A1, “COMPOUNDS AND METHODS FOR TREATING CORONA VIRUSES” (CLEAR CREEK BIO, INC., priority 2021, published 2025).
pIC50: −log10 of the molar value.

These compounds were tested against SARS-CoV-2 Papain-Like Protease (PLpro) (Severe acute respiratory syndrome coronavirus 2 (2019-nCoV) (SARS-CoV-2), UniProt P0DTD1) (assay: biochemical). Conditions: PLpro 6.25 nM, substrate 25 μM, 60 min at 25° C.; for more potent compounds PLpro 1 nM, 120 min; read-out: PLpro IC50.

For COc1ccc(C)c(C(=O)N[C@H](C)c2cccc3ccccc23)c1 [Compound 136, (R)-5-Methoxy-2-methyl-N-(1-(naphthalen-1-yl)ethyl)benzamide], the pIC50 was 5.30 to 6.00.

Same assay, conditions: PLpro enzymatic fluorescence assay; class symbols; read-out: PLpro IC50

Cc1ccc(OCC2CCN2C)cc1C(=O)NC1(c2cc(-c3ccc(F)cc3)cc3ccccc23)CC1 (stereo not drawn) [Compound 518, N-(1-(3-(4-Fluorophenyl)naphthalen-1-yl)cyclopropyl)-2-methyl-5-((1-methylazetidin-2-yl)methoxy)benzamide] and C=Cc1cc(C2(NC(=O)c3cc(OC[C@@H]4CCCN4C)ccc3C)CC2)c2cccnc2c1 [Compound 717, (S)-2-Methyl-5-((1-methylpyrrolidin-2-yl)methoxy)-N-(1-(7-vinylquinolin-5-yl)cyclopropyl)benzamide] cannot be ordered by pIC50: > 7.00 for the first, > 7.00 for the second.

Cc1ccc2c(C3(NC(=O)c4cc(OC[C@@H]5CCN5C)ccc4C)CC3)cc(O)cc2n1 [Compound 809, (S)-N-(1-(7-Hydroxy-2-methylquinolin-5-yl)cyclopropyl)-2-methyl-5-((1-methylazetidin-2-yl)methoxy)benzamide] and Cc1ccc(OC[C@@H]2CCN2C)cc1C(=O)NC1(c2cc(-c3ccc4nccn4c3)cc3ncccc23)CC1 [Compound 702, (S)—N-(1-(7-(Imidazo[1,2-a]pyridin-6-yl)quinolin-5-yl)cyclopropyl)-2-methyl-5-((1-methylazetidin-2-yl)methoxy)benzamide] cannot be ordered by pIC50: > 7.00 for the first, > 7.00 for the second.

Cc1ccc(OC[C@@H]2CCN2C)cc1C(=O)NC1(c2cc(-c3nccs3)cc3ncccc23)CC1 [Compound 590, (S)-2-Methyl-5-((1-methylazetidin-2-yl)methoxy)-N-(1-(7-(thiazol-2-yl)quinolin-5-yl)cyclopropyl)benzamide] and Cc1ccc(OCC(C)N)cc1C(=O)NC1(c2cccc3ncccc23)CC1 (stereo not drawn) [Compound 498, 5-(2-Aminopropoxy)-2-methyl-N-(1-(quinolin-5-yl)cyclopropyl)benzamide] cannot be ordered by pIC50: > 7.00 for the first, > 7.00 for the second.

C=C(C)c1cc(C2(NC(=O)c3cc(OC[C@H](C)NC)ccc3C)CC2)c2cccnc2c1 [Compound 660, (S)-2-Methyl-5-(2-(methylamino)propoxy)-N-(1-(7-(prop-1-en-2-yl)quinolin-5-yl)cyclopropyl)benzamide] and Cc1ncc(-c2cc(C3(NC(=O)c4cc(OC[C@@H]5CCN5C)ccc4C)CC3)c3cccnc3c2Cl)s1 [Compound 814, (S)-N-(1-(8-Chloro-7-(2-methylthiazol-5-yl)quinolin-5-yl)cyclopropyl)-2-methyl-5-((1-methylazetidin-2-yl)methoxy)benzamide] cannot be ordered by pIC50: > 7.00 for the first, > 7.00 for the second.

“(S)—N-(1-(7-Methoxy-2-methylquinolin-5-yl)cyclopropyl)-2-methyl-5-((1-(methyl-d3)azetidin-2-yl)methoxy)benzamide [Compound 798]” and COc1cc(C2(NC(=O)c3cc(OC[C@@H]4CCN4C)ccc3C)COC2)c2ccccc2c1 [Compound 566] cannot be ordered by pIC50: > 7.00 for the first, > 7.00 for the second.

Compared with C=Cc1cc(C2(NC(=O)c3cc(O[C@H](C)[C@@H]4CCN4C)ccc3C)CC2)c2cccnc2c1 [Compound 758, 2-Methyl-5-((R)-1-((S)-1-methylazetidin-2-yl)ethoxy)-N-(1-(7-vinylquinolin-5-yl)cyclopropyl)benzamide], CC(C)c1ccccc1C(C)N1CCC(C(=O)NCc2cccc(F)c2)CC1 (stereo not drawn) [Compound 552, N-(3-Fluorobenzyl)-1-(1-(2-isopropylphenyl)ethyl)piperidine-4-carboxamide] is lower in pIC50: > 7.00 for the first, < 5.30 for the second. The first is the more potent here.

With COc1cc(C2(NC(=O)c3cc(OCC45CCCN4CCC5)ccc3C)CC2)c2cccnc2c1 [Compound 559, 5-((Hexahydro-1H-pyrrolizin-7a-yl)methoxy)-N-(1-(7-methoxyquinolin-5-yl)cyclopropyl)-2-methylbenzamide] the pIC50 was > 7.00.

Same assay, conditions: SARS-CoV-2 PLpro enzymatic fluorescence assay; read-out: PLpro IC50

Cc1ccc(OCCN(C)C)cc1C(=O)NC1(c2cccc(F)c2)CC1 [Compound 252, 5-(2-(Dimethylamino)ethoxy)-N-(1-(3-fluorophenyl)cyclopropyl)-2-methylbenzamide] and Cc1ccc(OCCN(C)C)cc1C(=O)NC1(c2ccccc2F)CC1 [Compound 272, 5-(2-(Dimethylamino)ethoxy)-N-(1-(2-fluorophenyl)cyclopropyl)-2-methylbenzamide] cannot be ordered by pIC50: < 5.30 for the first, < 5.30 for the second.

Cc1ccc(OCCN(C)C)cc1C(=O)NC1(c2cccc3ccc(F)cc23)CC1 [Compound 365, 5-(2-(Dimethylamino)ethoxy)-N-(1-(7-fluoronaphthalen-1-yl)cyclopropyl)-2-methylbenzamide] and COc1cc(C2(NC(=O)c3cc(OCCN(C)C)ccc3C)CC2)c2ccccc2c1 [Compound 320, 5-(2-(Dimethylamino)ethoxy)-N-(1-(3-methoxynaphthalen-1-yl)cyclopropyl)-2-methylbenzamide] cannot be ordered by pIC50: > 7.00 for the first, > 7.00 for the second.

COc1cc(C2(NC(=O)c3cc(OC[C@@H]4CCCN4)ccc3C)CC2)c2ccccc2c1 [Compound 419, (S)-N-(1-(3-Methoxynaphthalen-1-yl)cyclopropyl)-2-methyl-5-(pyrrolidin-2-ylmethoxy)benzamide] and Cc1ccc(OC[C@@H]2CCCN2)cc1C(=O)NC1(c2cccc3ncccc23)CC1 [Compound 380, (S)-2-Methyl-5-(pyrrolidin-2-ylmethoxy)-N-(1-(quinolin-5-yl)cyclopropyl)benzamide] cannot be ordered by pIC50: > 7.00 for the first, > 7.00 for the second.

Cc1ccc(COC2CN(C)C2)cc1C(=O)NC1(c2cccc3ccccc23)CC1 [Compound 447, 2-Methyl-5-(((1-methylazetidin-3-yl)oxy)methyl)-N-(1-(naphthalen-1-yl)cyclopropyl)benzamide] and Cc1ccc(CC#N)cc1C(=O)NC1(c2cccc3ccccc23)CC1 [Compound 313, 5-(Cyanomethyl)-2-methyl-N-(1-(naphthalen-1-yl)cyclopropyl)benzamide] fall in the same range of pIC50: 6.00 to 7.00 for the first, 6.00 to 7.00 for the second.

Compared with Cc1ccc(OC2CCCNC2)cc1C(=O)NC1(c2cccc3ccccc23)CC1 (stereo not drawn) [Compound 268, 2-Methyl-N-(1-(naphthalen-1-yl)cyclopropyl)-5-(piperidin-3-yloxy)benzamide], Cc1ccc(OC[C@H]2C[C@@H](F)CN2)cc1C(=O)NC1(c2cccc3ccccc23)CC1 (single isomer, unassigned) [Compound 438] is higher in pIC50: 6.00 to 7.00 for the first, > 7.00 for the second.

CNCCOc1ccc(C)c(C(=O)NC2(c3cccc4cnccc34)CC2)c1 [Compound 375, N-(1-(Isoquinolin-5-yl)cyclopropyl)-2-methyl-5-(2-(methylamino)ethoxy)benzamide] and Cc1ccc(OCC(N)C(C)(C)C)cc1C(=O)NC1(c2cccc3ccccc23)CC1 (stereo not drawn) [Compound 343, 5-(2-Amino-3,3-dimethylbutoxy)-2-methyl-N-(1-(naphthalen-1-yl)cyclopropyl)benzamide] cannot be ordered by pIC50: > 7.00 for the first, > 7.00 for the second.

First: Cc1ccc(OCCN(C)C)cc1C(=O)NC1(c2ccccc2C(C)C)CC1 [Compound 344, 5-(2-(Dimethylamino)ethoxy)-N-(1-(2-isopropylphenyl)cyclopropyl)-2-methylbenzamide]
Second: Cc1ccc(OCCN(C)C)cc1C(=O)NC1(c2ccccc2Cl)CC1 [Compound 326, N-(1-(2-chlorophenyl)cyclopropyl)-5-(2-(dimethylamino)ethoxy)-2-methylbenzamide]
The pIC50 of the first is higher: 6.00 to 7.00 for the first, 5.30 to 6.00 for the second.

Cc1ccc(OCC(N)c2ccccc2)cc1C(=O)NC1(c2cccc3ccccc23)CC1 (stereo not drawn) [Compound 367, 5-(2-Amino-2-phenylethoxy)-2-methyl-N-(1-(naphthalen-1-yl)cyclopropyl)benzamide] and Cc1ccc(OC[C@H]2C[C@@H](F)CN2C)cc1C(=O)NC1(c2cccc3ccccc23)CC1 [Compound 437, 5-(((2R,4R)-4-Fluoro-1-methylpyrrolidin-2-yl)methoxy)-2-methyl-N-(1-(naphthalen-1-yl)cyclopropyl)benzamide] cannot be ordered by pIC50: > 7.00 for the first, > 7.00 for the second.

Cc1ccc(OC[C@H]2CCN2C)cc1C(=O)NC1(c2cccc3ncccc23)CC1 [Compound 390, (R)-2-Methyl-5-((1-methylazetidin-2-yl)methoxy)-N-(1-(quinolin-5-yl)cyclopropyl)benzamide] and Cc1ccc(OC[C@@H]2CCN2C)cc1C(=O)NC1(c2cccc3cc(F)ccc23)CC1 [Compound 389, (S)-N-(1-(6-Fluoronaphthalen-1-yl)cyclopropyl)-2-methyl-5-((1-methylazetidin-2-yl)methoxy)benzamide] cannot be ordered by pIC50: > 7.00 for the first, > 7.00 for the second.

First: Cc1ccc(OCCN2CCOCC2)cc1C(=O)NC1(c2cccc3ccccc23)CC1 [Compound 209, 2-Methyl-5-(2-morpholinoethoxy)-N-(1-(naphthalen-1-yl)cyclopropyl)benzamide]
Second: COc1ccc(OCCN(C)C)cc1C(=O)NC1(c2cccc3ccccc23)CC1 [Compound 303, 5-(2-(Dimethylamino)ethoxy)-2-methoxy-N-(1-(naphthalen-1-yl)cyclopropyl)benzamide]
The pIC50 of the first is higher: 6.00 to 7.00 for the first, < 5.30 for the second. The first is the more potent here.

Cc1ccc(OCCN(C)C)cc1C(=O)NC1(c2cccc3[nH]c4ccccc4c23)CC1 [Compound 415, N-(1-(9H-Carbazol-4-yl)cyclopropyl)-5-(2-(dimethylamino)ethoxy)-2-methylbenzamide] and Cc1ccc(OCCN(C)C)cc1C(=O)NC1(c2cn(C)c3ccccc23)CC1 [Compound 354, 5-(2-(Dimethylamino)ethoxy)-2-methyl-N-(1-(1-methyl-1H-indol-3-yl)cyclopropyl)benzamide] fall in the same range of pIC50: 6.00 to 7.00 for the first, 6.00 to 7.00 for the second.

Compared with C=Cc1cc(C2(NC(=O)c3cc(OC[C@@H]4CCN4C)c(F)cc3C)CC2)c2cccnc2c1 [Compound 800, (S)-4-Fluoro-2-methyl-5-((1-methylazetidin-2-yl)methoxy)-N-(1-(7-vinylquinolin-5-yl)cyclopropyl)benzamide], Cc1cc2ccn(C)c2cc1C(=O)N(C)C1(c2cccc3ccccc23)CC1 [Compound 208, N,1,5-Trimethyl-N-(1-(naphthalen-1-yl)cyclopropyl)-1H-indole-6-carboxamide] is lower in pIC50: > 7.00 for the first, < 5.30 for the second. The first is the more potent here.

In the case of CC(c1cccc2ccccc12)N1CC(CC(=O)NCc2cccc(F)c2)C1 (stereo not drawn) [Compound 143, N-(3-Fluorobenzyl)-2-(1-(1-(naphthalen-1-yl)ethyl)azetidin-3-yl)acetamide], the pIC50 was < 5.30.
